Results from ChEMBL document CHEMBL3576778, “Structure-Activity Relationship Studies of a Series of Semisynthetic Lipopeptides Leading to the Discovery of Surotomycin, a Novel Cyclic Lipopeptide Being Developed for the Treatment of Clostridium difficile-Associated Diarrhea” (J Med Chem, 2015).
≈ marks a conversion by molar mass, not a printed value.

What was measured:
Assay type in all cases: functional
Clostridioides difficile [1] = test: Antimicrobial activity against daptomycin-resistant Clostridium difficile NAP1 incubated anaerobically at 37 degC for 48 hrs by agar dilution method; details: NAP1, 48 h
Staphylococcus aureus = test: Antimicrobial activity against daptomycin-susceptible Staphylococcus aureus ATCC 29213 incubated anaerobically at 37 degC for 48 hrs by agar dilution method; details: ATCC 29213, 48 h
Enterococcus faecium = test: Antimicrobial activity against daptomycin-resistant Enterococcus faecium ATCC 6569 incubated anaerobically at 37 degC for 48 hrs by agar dilution method; details: ATCC 6569, 48 h
Enterococcus faecalis = test: Antimicrobial activity against daptomycin-resistant Enterococcus faecalis ATCC 49452 incubated anaerobically at 37 degC for 48 hrs by agar dilution method; details: ATCC 49452, 48 h
Clostridioides difficile [2] = test: Antimicrobial activity against daptomycin-resistant Clostridium difficile ATCC 43596 infected in Syrian golden hamster model of Clostridium difficile-associated diarrhea assessed as protection against microbial infection by measuring survival at day 25 to 26 at 0.5 mg/kg treated once daily for 5 consecutive days starting 4 hrs after spore inoculation

Structure (SMILES) | MIC (Clostridioides difficile [1]) [µg/mL] | MIC (Staphylococcus aureus) [µg/mL] | MIC (Enterococcus faecium) [µg/mL] | MIC (Enterococcus faecalis) [µg/mL] | survival at 0.5 mg/kg (Clostridioides difficile [2]) [%]
CCCCCC12CCC(C(=O)N[C@@H](Cc3c[nH]c4ccccc34)C(=O)N[C@@H](CC(N)=O)C(=O)N[C@@H](CC(=O)O)C(=O)N[C@@H]3C(=O)NCC(=O)N[C@@H](CCCN)C(=O)N[C@H](CC(=O)O)C(=O)N[C@H](C)C(=O)N[C@@H](CC(=O)O)C(=O)NCC(=O)N[C@H](CO)C(=O)N[C@@H]([C@@H](C)CC(=O)O)C(=O)N[C@@H](CC(=O)c4ccccc4N)C(=O)O[C@@H]3C)(CC1)CC2 | 1 (≈ 0.598 µM) | 0.25 (≈ 0.149 µM) | 16 (≈ 9.56 µM) | 32 (≈ 19.1 µM) | 60
CCCCCCCc1csc(C(=O)N[C@@H](Cc2c[nH]c3ccccc23)C(=O)N[C@@H](CC(N)=O)C(=O)N[C@@H](CC(=O)O)C(=O)N[C@@H]2C(=O)NCC(=O)N[C@@H](CCCN)C(=O)N[C@H](CC(=O)O)C(=O)N[C@H](C)C(=O)N[C@@H](CC(=O)O)C(=O)NCC(=O)N[C@H](CO)C(=O)N[C@@H]([C@@H](C)CC(=O)O)C(=O)N[C@@H](CC(=O)c3ccccc3N)C(=O)O[C@@H]2C)c1 | 2 (≈ 1.19 µM) | 0.125 (≈ 0.0746 µM) | 16 (≈ 9.55 µM) | 32 (≈ 19.1 µM) | 60
CCCCCCCc1ccc(C(=O)N[C@@H](Cc2c[nH]c3ccccc23)C(=O)N[C@@H](CC(N)=O)C(=O)N[C@@H](CC(=O)O)C(=O)N[C@@H]2C(=O)NCC(=O)N[C@@H](CCCN)C(=O)N[C@H](CC(=O)O)C(=O)N[C@H](C)C(=O)N[C@@H](CC(=O)O)C(=O)NCC(=O)N[C@H](CO)C(=O)N[C@@H]([C@@H](C)CC(=O)O)C(=O)N[C@@H](CC(=O)c3ccccc3N)C(=O)O[C@@H]2C)cc1 | 0.5 (≈ 0.3 µM) | 0.25 (≈ 0.15 µM) | 4 (≈ 2.4 µM) | 8 (≈ 4.79 µM) | 80
CCCCC[C@H]1CC[C@H](C(=O)N[C@@H](Cc2c[nH]c3ccccc23)C(=O)N[C@@H](CC(N)=O)C(=O)N[C@@H](CC(=O)O)C(=O)N[C@@H]2C(=O)NCC(=O)N[C@@H](CCCN)C(=O)N[C@H](CC(=O)O)C(=O)N[C@H](C)C(=O)N[C@@H](CC(=O)O)C(=O)NCC(=O)N[C@H](CO)C(=O)N[C@@H]([C@@H](C)CC(=O)O)C(=O)N[C@@H](CC(=O)c3ccccc3N)C(=O)O[C@@H]2C)CC1 | 0.5 (≈ 0.304 µM) | 0.5 (≈ 0.304 µM) | 16 (≈ 9.72 µM) | > 32 | 60
CCCCCCCCCCCCCCC(=O)N[C@@H](Cc1c[nH]c2ccccc12)C(=O)N[C@@H](CC(N)=O)C(=O)N[C@@H](CC(=O)O)C(=O)N[C@@H]1C(=O)NCC(=O)N[C@@H](CCCN)C(=O)NC(CC(=O)O)C(=O)N[C@H](C)C(=O)N[C@@H](CC(=O)O)C(=O)NCC(=O)N[C@H](CO)C(=O)N[C@@H]([C@@H](C)CC(=O)O)C(=O)N[C@@H](CC(=O)c2ccccc2N)C(=O)O[C@@H]1C (single isomer, unassigned) | 16 (≈ 9.46 µM) | 1 (≈ 0.591 µM) | 4 (≈ 2.37 µM) | 4 (≈ 2.37 µM) | 
